Laboratory results from ChEMBL document CHEMBL4602605, “Fluoroquinolones structural and medicinal developments (2013-2018): Where are we now?” (Bioorg Med Chem, 2019).
Converted amounts (≈) assume the structure as drawn.

Tests used:
HeLa = test: Growth inhibition of human HeLa cells at 50 uM after 24 to 72 hrs by trypan blue staining based assay relative to control; assay type: functional; conditions: read-out: GI
HL-60 = test: Growth inhibition of human HL60 cells at 50 uM after 24 to 72 hrs by trypan blue staining based assay relative to control; assay type: functional; conditions: read-out: GI
B16 = test: Growth inhibition of mouse B16 cells at 50 uM after 24 to 72 hrs by trypan blue staining based assay relative to control; assay type: functional; conditions: read-out: GI
[1] = Growth inhibition of mouse NIH/3T3 cells at 50 uM after 24 to 72 hrs by trypan blue staining based assay relative to control; assay type: cell-based, NIH3T3; conditions: read-out: GI
Staphylococcus aureus [2] = test: Antimicrobial activity against Staphylococcus aureus ATCC 25923 by CLSI method; assay type: functional
Escherichia coli [3] = test: Antimicrobial activity against Escherichia coli ATCC 25922 by CLSI method; assay type: functional
Mycobacterium avium = test: Antimicrobial activity against Mycobacterium avium incubated for 10 days by microbroth dilution method; assay type: functional; conditions: 240 h
[4] = tested on: Mycobacterium tuberculosis; test: Antimicrobial activity against Mycobacterium tuberculosis H37Rv incubated for 10 days by microbroth dilution method; assay type: functional; conditions: 240 h
Mycolicibacter terrae = test: Antimicrobial activity against Mycobacterium terrae incubated for 10 days by microbroth dilution method; assay type: functional; conditions: 240 h
Staphylococcus aureus [5] = test: Antimicrobial activity against Staphylococcus aureus ATCC 9253 incubated for 24 hrs by microbroth dilution method; assay type: functional; conditions: ATCC 9253, 24 h
Escherichia coli [6] = test: Antimicrobial activity against Escherichia coli ATCC 8739 incubated for 24 hrs by microbroth dilution method; assay type: functional; conditions: ATCC 8739, 24 h
Salmonella enterica = test: Antimicrobial activity against Salmonella enterica ATCC 13312 incubated for 24 hrs by microbroth dilution method; assay type: functional; conditions: ATCC 13312, 24 h
Candida albicans [7] = test: Antimicrobial activity against Candida albicans ATCC 10231 after 24 hrs by microbroth dilution method; assay type: functional; conditions: ATCC 10231, 24 h
Pseudomonas aeruginosa [8] = test: Antimicrobial activity against Pseudomonas aeruginosa ATCC 9627 incubated for 24 hrs by microbroth dilution method; assay type: functional; conditions: ATCC 9627, 24 h
Listeria monocytogenes = test: Antimicrobial activity against Listeria monocytogenes ATCC 19115 incubated for 24 hrs by microbroth dilution method; assay type: functional; conditions: ATCC 19115, 24 h
Escherichia coli [9] = test: Antimicrobial activity against Escherichia coli NCTC 11954 incubated for 24 hrs by microbroth dilution method; assay type: functional; conditions: NCTC 11954, 24 h
Aspergillus flavus = test: Antimicrobial activity against Aspergillus flavus ATCC 9643 after 48 hrs by microbroth dilution method; assay type: functional; conditions: ATCC 9643, 48 h
Stachybotrys chartarum = test: Antimicrobial activity against Stachybotrys chartarum IBT 7711 after 48 hrs by microbroth dilution method; assay type: functional; conditions: IBT 7711, 48 h
Escherichia coli [10] = test: Antimicrobial activity against nalidixic acid-resistant Escherichia coli clinical isolate incubated for 24 hrs by microbroth dilution method; assay type: functional
Escherichia coli [11] = test: Antimicrobial activity against Escherichia coli O157:H7 incubated for 24 hrs by microbroth dilution method; assay type: functional; conditions: O157:H7, 24 h
Staphylococcus aureus [12] = test: Antimicrobial activity against Staphylococcus aureus ATCC 33591 incubated for 24 hrs by microbroth dilution method; assay type: functional; conditions: ATCC 33591, 24 h
Penicillium chrysogenum = test: Antimicrobial activity against Penicillium chrysogenum ATCC 10106 after 48 hrs by microbroth dilution method; assay type: functional; conditions: ATCC 10106, 48 h
PC-3 = test: Growth inhibition of human PC3 cells by MTT assay; assay type: functional, cell-based
Aspergillus clavatus = test: Antifungal activity against Aspergillus clavatus after overnight incubation by agar well diffusion method; assay type: functional
[13] = tested on: Mycolicibacterium smegmatis; test: Antimicrobial activity against Mycobacterium smegmatis incubated for 30 to 32 hrs by spectrophotometry based assay; assay type: functional
Candida albicans [14] = test: Antifungal activity against Candida albicans after overnight incubation by agar well diffusion method; assay type: functional
Pseudomonas aeruginosa [15] = test: Antimicrobial activity against Pseudomonas aeruginosa ATCC 43288 incubated for 18 to 24 hrs by microbroth dilution method; assay type: functional
Enterococcus faecalis = test: Antimicrobial activity against Enterococcus faecalis ATCC 29212 incubated for 18 to 24 hrs by microbroth dilution method; assay type: functional
[16] = tested on: Mycolicibacterium smegmatis; test: Antimicrobial activity against Mycobacterium smegmatis ATCC 607 incubated for 48 to 72 hrs by microbroth dilution method; assay type: functional
Staphylococcus aureus [17] = test: Antimicrobial activity against Staphylococcus aureus ATCC 25923 incubated for 18 to 24 hrs by microbroth dilution method; assay type: functional
Bacillus cereus = test: Antimicrobial activity against Bacillus cereus 709 Roma incubated for 18 to 24 hrs by microbroth dilution method; assay type: functional
Escherichia coli [18] = test: Antimicrobial activity against Escherichia coli ATCC 25922 incubated for 18 to 24 hrs by microbroth dilution method; assay type: functional
[19] = tested on: Yersinia pseudotuberculosis; test: Antimicrobial activity against Yersinia pseudotuberculosis ATCC 911 incubated for 18 to 24 hrs by microbroth dilution method; assay type: functional
Klebsiella pneumoniae = test: Antimicrobial activity against Klebsiella pneumoniae incubated overnight by broth microdilution method; assay type: functional
Staphylococcus aureus [20] = test: Antimicrobial activity against methicillin-resistant Staphylococcus aureus incubated overnight by broth microdilution method; assay type: functional

For `O=C(CSc1nnc(CN2CCN(c3cc4c(cc3F)c(=O)c(C(=O)O)cn4C3CC3)CC2)o1)c1ccc(Cl)cc1`, the inhibition of growth at 50 µM (HeLa) was 100%, the inhibition of growth at 50 µM (HL-60) was 100% and the inhibition of growth at 50 µM (B16) was 100%. For the same compound, the inhibition at 50 µM [1] was 100%.

With `CCN1CCN(c2cc3c(cc2F)c(=O)c(C(=O)O)cn3C2CC2)CC1` [ENROFLOXACIN] the MIC (Staphylococcus aureus [2]) was 2 mg/L (≈ 5.56 µM) and the MIC (Escherichia coli [3]) was 0.031 mg/L (≈ 0.0863 µM).

`CCn1cc(C(=O)O)c(=O)c2cc(F)c(-c3cc4cc(Br)ccc4oc3=O)cc21` showed an MIC (Mycobacterium avium) of 6.2 mg/L (≈ 13.5 µM), an MIC [4] of 6.2 mg/L (≈ 13.5 µM) and an MIC (Mycolicibacter terrae) of 6.2 mg/L (≈ 13.5 µM).

In the case of `COc1c(N2CCN(C)CC2)c(F)cc2c(=O)c(C(=O)N[C@H]3[C@H](O)[C@@H](O)[C@H](CO)[C@H](O)[C@@H]3O)cn(C3CC3)c12`, the MIC (Staphylococcus aureus [5]) is reported as 159 µM (≈ 87.5 µg/mL), the MIC (Escherichia coli [6]) is reported as 318 µM (≈ 175 µg/mL) and the MIC (Salmonella enterica) is reported as 159 µM (≈ 87.5 µg/mL). The MIC (Candida albicans [7]) was under 9.9 µM, the MIC (Pseudomonas aeruginosa [8]) was 19.9 µM (≈ 11 µg/mL) and the MIC (Listeria monocytogenes) was 636 µM (≈ 350 µg/mL). It also gave an MIC (Escherichia coli [9]) of 159 µM (≈ 87.5 µg/mL), an MIC (Aspergillus flavus) of 636 µM (≈ 350 µg/mL) and an MIC (Stachybotrys chartarum) of 636 µM (≈ 350 µg/mL). The MIC (Escherichia coli [10]) was 636 µM (≈ 350 µg/mL), the MIC (Escherichia coli [11]) was 39.7 µM (≈ 21.9 µg/mL) and the MIC (Staphylococcus aureus [12]) was 159 µM (≈ 87.5 µg/mL).

With `O=C(O)c1cn(C2CC2)c2cc(N3CCN(Cc4ccccc4)CC3)c(F)cc2c1=O` the MIC (Staphylococcus aureus [2]) was 0.25 mg/L (≈ 0.593 µM) and the MIC (Escherichia coli [3]) was 0.25 mg/L (≈ 0.593 µM).

`COC[C@@H]1[C@H](OC(C)=O)[C@H](OC(C)=O)[C@@H](NC(=O)c2cn(C3CC3)c3c(OC)c(N4CCN(C)CC4)c(F)cc3c2=O)[C@H](OC(C)=O)[C@H]1OC(C)=O` showed an MIC (Staphylococcus aureus [5]) of 55.7 µM (≈ 40.8 µg/mL), an MIC (Escherichia coli [6]) of 445 µM (≈ 326 µg/mL) and an MIC (Salmonella enterica) of 890 µM (≈ 652 µg/mL). It also gave an MIC (Candida albicans [7]) of 223 µM (≈ 163 µg/mL), an MIC (Pseudomonas aeruginosa [8]) of 111 µM (≈ 81.6 µg/mL) and an MIC (Listeria monocytogenes) of 111 µM (≈ 81.6 µg/mL). It also gave an MIC (Escherichia coli [9]) of 111 µM (≈ 81.6 µg/mL), an MIC (Aspergillus flavus) of 55.7 µM (≈ 40.8 µg/mL) and an MIC (Stachybotrys chartarum) of 445 µM (≈ 326 µg/mL). It also gave an MIC (Penicillium chrysogenum) of 445 µM (≈ 326 µg/mL), an MIC (Escherichia coli [10]) of 445 µM (≈ 326 µg/mL) and an MIC (Escherichia coli [11]) of 55.7 µM (≈ 40.8 µg/mL). The MIC (Staphylococcus aureus [12]) was 111 µM (≈ 81.6 µg/mL).

In the case of `COc1cc(/C=N\NC(=O)c2cn(C3CC3)c3c(OC)c(N4CCN(C)CC4)c(F)cc3c2=O)cc(OC)c1OC`, the IC50 (PC-3) is reported as 8.5 mg/L (≈ 15 µM), the “inhibition zone (IZ)” value (Aspergillus clavatus) is reported as 13 mm and the MIC [13] is reported as 81.2 µM (≈ 46.1 µg/mL). For the same compound, the “inhibition zone (IZ)” value (Candida albicans [14]) was 13 mm.

`CCn1cc(C(=O)O)c(=O)c2cc(F)c(N3CCN(Cn4nc(CN5CCN(c6ccc([N+](=O)[O-])cc6)CC5)n(Cc5ccccc5)c4=O)CC3)cc21` showed an MIC (Pseudomonas aeruginosa [15]) of 0.24 to 0.5 mg/L (≈ 0.331 to 0.689 µM), an MIC (Enterococcus faecalis) of 0.48 to 0.5 mg/L (≈ 0.661 to 0.689 µM) and an MIC [16] of 0.244 to 0.99 mg/L (≈ 0.336 to 1.36 µM). For the same compound, the MIC (Staphylococcus aureus [17]) was 0.24 to 0.25 mg/L (≈ 0.331 to 0.344 µM), the MIC (Bacillus cereus) was 0.24 to 0.25 mg/L (≈ 0.331 to 0.344 µM) and the MIC (Escherichia coli [18]) was 0.25 to 0.99 mg/L (≈ 0.344 to 1.36 µM).

`CCn1cc(C(=O)O)c(=O)c2cc(F)c(N3CCN(Cn4nc(CN5CCN(c6ccc([N+](=O)[O-])cc6)CC5)oc4=S)CC3)cc21` gave an MIC [19] of under 0.25 mg/L, an MIC (Pseudomonas aeruginosa [15]) of under 0.25 mg/L and an MIC (Enterococcus faecalis) of under 0.25 mg/L. It also gave an MIC [16] of 1 mg/L (≈ 1.53 µM), an MIC (Staphylococcus aureus [17]) of 0.25 mg/L (≈ 0.383 µM) and an MIC (Bacillus cereus) of under 0.25 mg/L. For the same compound, the MIC (Escherichia coli [18]) was 0.03 mg/L (≈ 0.046 µM).

With `CCn1cc(C(=O)O)c(=O)c2cc(F)c(-c3cc4cc(C(C)(C)C)cc(C(C)(C)C)c4oc3=O)cc21` the MIC (Mycobacterium avium) was 3.1 mg/L (≈ 6.31 µM), the MIC [4] was 3.1 mg/L (≈ 6.31 µM) and the MIC (Mycolicibacter terrae) was 1.5 mg/L (≈ 3.05 µM).

Compound `C[C@H]1Cn2cc(C(=O)NCCC(=O)NCCC[C@@H]3NC(=O)[C@H](CCCNC(=N)N)NC(=O)[C@H](CCCNC(=N)N)NC(=O)[C@H](CCCNC(=N)N)NC(=O)[C@@H](Cc4c[nH]c5ccccc45)NC(=O)[C@H](Cc4c[nH]c5ccccc45)NC(=O)[C@H](Cc4c[nH]c5ccccc45)NC(=O)[C@H](Cc4c[nH]c5ccccc45)NC(=O)[C@H](CCCNC(=N)N)NC3=O)c(=O)c3cc(F)c(N4CCN(C)CC4)c(c32)O1` has an MIC (Klebsiella pneumoniae) of over 128 mg/L and an MIC (Staphylococcus aureus [20]) of 32 mg/L (≈ 16.9 µM).

Compound `CCn1cc(C(=O)O)c(=O)c2cc(F)c(N3CCN(Cn4nc(CN5CCN(c6ccc([N+](=O)[O-])cc6)CC5)n(-c5ccc(F)cc5)c4=S)CC3)cc21` has an MIC [19] of 0.24 mg/L (≈ 0.322 µM), an MIC (Pseudomonas aeruginosa [15]) of 0.48 mg/L (≈ 0.644 µM) and an MIC (Enterococcus faecalis) of 0.25 mg/L (≈ 0.335 µM). It also gave an MIC [16] of 0.244 mg/L (≈ 0.327 µM), an MIC (Staphylococcus aureus [17]) of 0.48 mg/L (≈ 0.644 µM) and an MIC (Bacillus cereus) of 0.24 mg/L (≈ 0.322 µM). It also gave an MIC (Escherichia coli [18]) of under 0.03 mg/L.

`CC(=O)N1CCN(c2cc3c(cc2F)c(=O)c(C(=O)O)cn3C2CC2)CC1` showed an MIC (Staphylococcus aureus [2]) of 0.5 mg/L (≈ 1.34 µM) and an MIC (Escherichia coli [3]) of 0.5 mg/L (≈ 1.34 µM).
